pIC50: −log10 of the molar value.
Experiments:
HepG2 = assay: Cytotoxicity against human HepG2 cells MTT assay; format: functional, cell-based
MCF7 [1] = assay: Drug uptake in human MCF7 cells by flow cytometry; format: ADME, cell-based
MCF7 [2] = assay: Cytotoxicity against human MCF7 cells by MTT assay; format: functional, cell-based
MDA-MB-231 [3] = assay: Cytotoxicity against human MDA-MB-231 cells MTT assay; format: functional, cell-based
MDA-MB-231 [4] = assay: Drug uptake in human MDA-MB-231 cells by flow cytometry; format: ADME, cell-based

| Drug uptake (MCF7 [1]) | Drug uptake (MDA-MB-231 [4]) | Compound | pIC50 (HepG2) | pIC50 (MCF7 [2]) | pIC50 (MDA-MB-231 [3]) |
| --- | --- | --- | --- | --- | --- |
| Dose-dependent effect | Dose-dependent effect | CC/C=C\C/C=C\C/C=C\CCCCCCCC(=O)N[C@H]1C[C@H](O[C@H]2C[C@](O)(C(=O)CO)Cc3c(O)c4c(c(O)c32)C(=O)c2c(OC)cccc2C4=O)O[C@@H](C)[C@H]1O | 5.17 | 5.33 | 5.51 |
| Dose-dependent effect | Dose-dependent effect | COc1cccc2c1C(=O)c1c(O)c3c(c(O)c1C2=O)C[C@@](O)(C(=O)CO)C[C@@H]3O[C@H]1C[C@H](N)[C@H](O)[C@H](C)O1 [DOXORUBICIN] | 4.84 | – | 4.99 |

— ChEMBL document CHEMBL1138599, “Conjugation with alpha-linolenic acid improves cancer cell uptake and cytotoxicity of doxorubicin” (Bioorg Med Chem Lett, 2009)
